Literature values in US20040131543A1, “Radiopharmaceuticals and radioactive microspheres for locoregional ablation of abnormal tissues” (priority 2002, published 2004).

Details: single intratracheal instillation, rats

[Cl][Gd]([Cl])[Cl] [GdCl3, Gd chloride]
Half-life of Gd deposited in lung tissue: extremely long half-life
